Results from ChEMBL document CHEMBL1201862, “PubChem BioAssay data set” (2004).
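Five concentrations, 48 hours, 96-well plates. Abbreviation: GI50, concentration required for 50% inhibition of growth.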 Calls of active or inactive are those of the source. Cut-off read from the data, not from the text of the source: active = GI50 up to about 1.1 µM and inactive = higher.

Assays:
Assay in all cases: NCI tumour cell line growth inhibition, 48 h
NCI-H460 = test system: NCI-H460
SF-268 = test system: SF-268
PC-3 = test system: PC-3
UACC-62 = test system: UACC-62
SK-MEL-2 = test system: SK-MEL-2
SN12C = test system: SN12C
SK-OV-3 = test system: SK-OV-3
DU-145 = test system: DU-145
RPMI-8226 = test system: RPMI-8226
OVCAR-3 = test system: OVCAR-3
UACC-257 = test system: UACC-257
COLO 205 = test system: COLO 205
NCI-H23 = test system: NCI-H23
MDA-N = test system: MDA-N
SR = test system: SR
TK-10 = test system: TK-10
MDA-MB-231 = test system: MDA-MB-231
LOX IMVI = test system: LOX IMVI
HOP-92 = test system: HOP-92
SF-539 = test system: SF-539

Measured: GI50

COC(=O)/C=C(/C)n1nc2ccccc2n1
inactive: NCI-H460 > 100 µM | SF-268 > 100 µM | PC-3 > 100 µM | UACC-62 > 100 µM | SK-MEL-2 > 100 µM | SN12C > 100 µM | SK-OV-3 > 100 µM | DU-145 > 100 µM | RPMI-8226 22.4 µM | OVCAR-3 > 100 µM | UACC-257 > 100 µM | COLO 205 > 100 µM | NCI-H23 > 100 µM | MDA-N > 100 µM | SR > 100 µM | TK-10 > 100 µM | MDA-MB-231 > 100 µM

OCC1CCCC(n2cnc3c(S)ncnc32)O1 (configuration not stated)
inactive: NCI-H460 > 100 µM | SF-268 > 100 µM | PC-3 > 100 µM | UACC-62 > 100 µM | LOX IMVI > 100 µM | SK-MEL-2 > 100 µM | SN12C > 100 µM | SK-OV-3 > 100 µM | DU-145 > 100 µM | RPMI-8226 > 100 µM | OVCAR-3 > 100 µM | UACC-257 > 100 µM | COLO 205 > 100 µM | NCI-H23 > 100 µM | HOP-92 > 100 µM | MDA-N > 100 µM | SR > 100 µM | TK-10 > 100 µM | MDA-MB-231 > 100 µM

CC(C)(C)OC(=O)NCC(=O)NC1c2ccsc2/C(=N/O)[C@H]1O (some centres not stated)
inactive: NCI-H460 > 100 µM | PC-3 > 100 µM | UACC-62 > 100 µM | LOX IMVI > 100 µM | SF-539 > 100 µM | SK-MEL-2 > 100 µM | SN12C > 100 µM | SK-OV-3 > 100 µM | DU-145 > 100 µM | OVCAR-3 > 100 µM | UACC-257 > 100 µM | COLO 205 > 100 µM | NCI-H23 > 100 µM | HOP-92 7.36 µM | MDA-N > 100 µM | SR > 100 µM | TK-10 > 100 µM | MDA-MB-231 > 100 µM

COC(=O)c1c(O)ccc2c1c1c(n2Cc2ccc(OC)cc2)C(=O)c2ccccc2C1
inactive: NCI-H460 29.3 µM | SF-268 30.3 µM | PC-3 18.5 µM | UACC-62 > 100 µM | LOX IMVI 57.7 µM | SF-539 42.2 µM | SK-MEL-2 62.5 µM | SN12C 27 µM | SK-OV-3 31 µM | DU-145 > 100 µM | RPMI-8226 8.22 µM | OVCAR-3 63.2 µM | UACC-257 44.4 µM | COLO 205 16.9 µM | NCI-H23 63.4 µM | MDA-N 53.1 µM | SR 66.2 µM | TK-10 84.1 µM | MDA-MB-231 32.4 µM

NC(=O)CC[C@H]1C(=O)N=C(N)N1C(=O)OCc1ccccc1
inactive: NCI-H460 > 100 µM | SF-268 > 100 µM | PC-3 > 100 µM | UACC-62 > 100 µM | LOX IMVI > 100 µM | SK-MEL-2 > 100 µM | SN12C > 100 µM | DU-145 > 100 µM | RPMI-8226 > 100 µM | OVCAR-3 > 100 µM | UACC-257 > 100 µM | COLO 205 > 100 µM | NCI-H23 > 100 µM | MDA-N > 100 µM | SR > 100 µM | TK-10 > 100 µM | MDA-MB-231 > 100 µM

CC(C)(C)[Si](C)(C)OCC1OC(n2cnc3c(N)ncnc32)C(O)C1O (configuration not stated)
inactive: NCI-H460 > 100 µM | SF-268 > 100 µM | PC-3 43.5 µM | UACC-62 22.1 µM | LOX IMVI > 100 µM | SF-539 > 100 µM | SK-MEL-2 > 100 µM | SN12C > 100 µM | SK-OV-3 30.7 µM | DU-145 > 100 µM | RPMI-8226 81.3 µM | OVCAR-3 76 µM | UACC-257 > 100 µM | COLO 205 > 100 µM | NCI-H23 71 µM | MDA-N > 100 µM | SR 60.8 µM | TK-10 > 100 µM | MDA-MB-231 96.4 µM

CC(=O)NNC1=NN(C(C)=O)C2(S1)C(=O)Nc1ccccc12 (configuration not stated)
inactive: NCI-H460 > 100 µM | SF-268 > 100 µM | PC-3 45 µM | UACC-62 > 100 µM | LOX IMVI > 100 µM | SF-539 > 100 µM | SK-MEL-2 > 100 µM | SN12C > 100 µM | SK-OV-3 > 100 µM | DU-145 > 100 µM | RPMI-8226 > 100 µM | OVCAR-3 > 100 µM | UACC-257 > 10 µM | NCI-H23 > 100 µM | MDA-N > 100 µM | SR > 100 µM | TK-10 > 100 µM | MDA-MB-231 > 100 µM

CC1(C)C2CC(=O)C1(C)C(OCc1ccccc1)C2 (configuration not stated)
inactive: NCI-H460 33.3 µM | SF-268 > 100 µM | PC-3 34.4 µM | UACC-62 62.5 µM | LOX IMVI 22.1 µM | SF-539 > 100 µM | SK-MEL-2 > 100 µM | SN12C 36.6 µM | SK-OV-3 54.8 µM | DU-145 > 100 µM | RPMI-8226 27.7 µM | OVCAR-3 62.7 µM | UACC-257 74 µM | COLO 205 29.6 µM | NCI-H23 27.2 µM | MDA-N 47.3 µM | SR 25.1 µM | TK-10 23.4 µM | MDA-MB-231 44 µM

N#CC1=C(N)N(c2ccccc2)C(c2ccco2)C1(C#N)C#N (configuration not stated)
inactive: SF-268 34.7 µM | PC-3 27.4 µM | UACC-62 23.2 µM | LOX IMVI 16.7 µM | SF-539 19.3 µM | SK-MEL-2 27.5 µM | SN12C 30.3 µM | SK-OV-3 77.8 µM | DU-145 19.4 µM | RPMI-8226 19.4 µM | OVCAR-3 19 µM | UACC-257 18.4 µM | COLO 205 19.4 µM | NCI-H23 19.9 µM | MDA-N 27.8 µM | SR 20.5 µM | TK-10 16.4 µM | MDA-MB-231 15.3 µM

COC(=O)C1=CCC[C@H]2[C@@]1(COC(C)=O)CC[C@@H](C)[C@]2(C)CC(=O)c1ccoc1
inactive: NCI-H460 14.3 µM | SF-268 27.2 µM | PC-3 14.7 µM | UACC-62 7.93 µM | LOX IMVI 10.8 µM | SF-539 10.9 µM | SK-MEL-2 15.7 µM | SN12C 17.8 µM | SK-OV-3 47.5 µM | DU-145 21.5 µM | RPMI-8226 11.4 µM | OVCAR-3 15.7 µM | UACC-257 18.7 µM | COLO 205 12.2 µM | NCI-H23 13.8 µM | HOP-92 10.9 µM | MDA-N 16.5 µM | TK-10 18.2 µM | MDA-MB-231 17.2 µM

COc1cc2c3c4[n+](cc2c(OC)c1OC)CCC4CCC3 (configuration not stated)
inactive: NCI-H460 > 100 µM | SF-268 > 100 µM | PC-3 > 100 µM | UACC-62 > 100 µM | LOX IMVI > 100 µM | SF-539 > 100 µM | SK-MEL-2 > 95.1 µM | SN12C > 100 µM | SK-OV-3 > 100 µM | DU-145 > 100 µM | RPMI-8226 40.4 µM | OVCAR-3 46.9 µM | UACC-257 57.3 µM | COLO 205 34.7 µM | NCI-H23 98.9 µM | HOP-92 > 100 µM | MDA-N > 100 µM | TK-10 > 100 µM | MDA-MB-231 > 100 µM
